Data published in patent EP4800012A1, “COMPOUND ACTING AS PARP7 INHIBITOR” (Dovetree Medicines Unus, Inc., priority 2023, dated 2025).

Key:
NCI-H1373 cells = assay: Inhibition on NCI-H1373 cell proliferation (Cell-Titer-Glo); assay type: cell-based; details: Homo sapiens, 144 h; NCI-H1373 cells, incubation for 6 days, Cell-Titer-Glo; read-out: NCI-H1373 cell proliferation inhibition IC50
PARP7 [1] = biological target: T1, PARP7 (Homo sapiens, UniProt Q7Z3E1); assay: PARP7 TR-FRET binding inhibition (displacement of probe RBN011147)
T1 construct: purchased BPS 80527
T1 sequence (Q7Z3E1 1-657): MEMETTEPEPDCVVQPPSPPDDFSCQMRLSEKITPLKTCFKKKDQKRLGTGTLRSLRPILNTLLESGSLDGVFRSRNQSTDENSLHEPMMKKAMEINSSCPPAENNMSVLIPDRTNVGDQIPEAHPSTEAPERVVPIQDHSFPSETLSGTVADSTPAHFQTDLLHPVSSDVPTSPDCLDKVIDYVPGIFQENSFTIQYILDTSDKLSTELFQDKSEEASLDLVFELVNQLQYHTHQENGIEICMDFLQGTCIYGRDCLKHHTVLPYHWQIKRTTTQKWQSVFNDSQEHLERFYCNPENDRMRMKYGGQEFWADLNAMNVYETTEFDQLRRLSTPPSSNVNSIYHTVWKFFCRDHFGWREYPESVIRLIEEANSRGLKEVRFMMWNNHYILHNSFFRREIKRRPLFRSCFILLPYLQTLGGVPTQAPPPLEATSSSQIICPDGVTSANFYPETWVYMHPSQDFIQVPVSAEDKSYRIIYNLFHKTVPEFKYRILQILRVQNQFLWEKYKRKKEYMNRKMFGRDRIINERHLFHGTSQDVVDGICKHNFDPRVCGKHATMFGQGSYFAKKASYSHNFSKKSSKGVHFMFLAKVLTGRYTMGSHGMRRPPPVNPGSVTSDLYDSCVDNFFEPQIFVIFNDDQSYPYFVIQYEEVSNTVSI
Experimental: The ability of the compound to substitute the probe RBN011147 (Wigle et al., 2020, Cell Chemical Biology 27, 877-887) was tested by a TR-FRET method, and IC50 was calculated to evaluate the binding ability of the compound to PARP7. […]

PARP7 [2] = biological target: T1, PARP7; assay: Inhibition of the compound on PARP7 protein activity (ADP-ribosylation, chemiluminescence); assay type: biochemical
[3] = TR-FRET, Biotin-labeled probe RBN011147; read-out: PARP7 binding inhibition IC50
[4] = Histone H1 coated plate, Biotin-Labeled NAD+, 2 h at room temperature, chemiluminescence; read-out: PARP7 activity inhibition IC50

Row | IC50 (NCI-H1373 cells) [nM] | IC50 (PARP7 [1]; [3]) [nM] | IC50 (PARP7 [2]; [4]) [nM] | Compound | IC50 (PARP7 [1]; read-out: PARP7 binding inhibition IC50; TR-FRET, Biotin-labeled probe RBN011147) [nM] | IC50 (PARP7 [2]; read-out: PARP7 activity inhibition IC50; Histone H1 coated plate, Biotin-Labeled NAD+, 2 h at room temperature, chemiluminescence) [nM]
1 | > 3000 | 10 to 30 | 3 to 10 | CC(CCCNC(=O)c1ccc(-c2nc(C(F)(F)F)no2)cc1)Nc1cn[nH]c(=O)c1C(F)(F)F (stereo not drawn) [Example 78] | – | –
2 | > 3000 | < 10 | 3 to 10 | CC(CCCNC(=O)c1ccc(-c2cc(C(F)(F)F)on2)cc1)Nc1cn[nH]c(=O)c1C(F)(F)F (stereo not drawn) [Example 79] | – | –
3 | > 3000 | 30 to 100 | 10 to 30 | CC(CCCNC(=O)c1ccc(-c2csc(C(F)(F)F)n2)cc1)Nc1cn[nH]c(=O)c1C(F)(F)F (stereo not drawn) [Example 80] | – | –
4 | > 3000 | 30 to 100 | 30 to 100 | CC(CCCNC(=O)c1ccc(-c2nc(C(F)(F)F)cs2)cc1)Nc1cn[nH]c(=O)c1C(F)(F)F (stereo not drawn) [Example 81] | – | –
5 | > 3000 | 30 to 100 | 3 to 10 | CC(CCCNC(=O)c1ccc(-c2nnc(C(F)(F)F)s2)cc1)Nc1cn[nH]c(=O)c1C(F)(F)F (stereo not drawn) [Example 82] | – | –
6 | > 3000 | 30 to 100 | 3 to 10 | CC(CCCNC(=O)c1ncc(-c2ncc(C(F)(F)F)cn2)s1)Nc1cn[nH]c(=O)c1C(F)(F)F (stereo not drawn) [Example 151] | – | –
7 | 1000 to 3000 | 10 to 30 | < 3 | CC(CCCNC(=O)c1ccc(-c2ncc(C3CCCC3)s2)cc1)Nc1cn[nH]c(=O)c1C(F)(F)F (stereo not drawn) [Example 155] | – | –
8 | 300 to 1000 | 10 to 30 | < 3 | CC(CCCNC(=O)c1cnc(-n2cc(C(F)(F)F)cn2)cn1)Nc1cn[nH]c(=O)c1C(F)(F)F (stereo not drawn) [Example 175] | – | –
9 | < 300 | < 10 | < 3 | CC(CCCNC(=O)c1ccc(-n2cc(C(F)(F)F)cn2)cc1F)Nc1cn[nH]c(=O)c1C(F)(F)F (stereo not drawn) [Example 176] | – | –
10 | 1000 to 3000 | < 10 | < 3 | CC(CCCNC(=O)c1ccc(-c2csc(C(F)(F)F)n2)nc1)Nc1cn[nH]c(=O)c1C(F)(F)F (stereo not drawn) [Example 177] | – | –
11 | > 3000 | 10 to 30 | < 3 | CC(CCCNC(=O)c1cnc(-c2cscn2)c(F)c1)Nc1cn[nH]c(=O)c1C(F)(F)F (stereo not drawn) [Example 178] | – | –
12 | > 3000 | 10 to 30 | < 3 | CC(CCCNC(=O)c1ccc(-c2cscn2)cc1F)Nc1cn[nH]c(=O)c1C(F)(F)F (stereo not drawn) [Example 179] | – | –
13 | > 3000 | 30 to 100 | 3 to 10 | CC(CCCNC(=O)c1ncc(-c2cscn2)cc1F)Nc1cn[nH]c(=O)c1C(F)(F)F (stereo not drawn) [Example 182] | – | –
14 | 300 to 1000 | < 10 | < 3 | CC(CCCNC(=O)c1ncc(-n2cc(C(F)(F)F)cn2)cc1F)Nc1cn[nH]c(=O)c1C(F)(F)F (stereo not drawn) [Example 183] | – | –
15 | 300 to 1000 | < 10 | < 3 | CC(CCCNC(=O)c1cnc(-c2ncc(C(F)(F)F)s2)c(F)c1)Nc1cn[nH]c(=O)c1C(F)(F)F (stereo not drawn) [Example 184] | – | –
16 | 300 to 1000 | 30 to 100 | < 3 | CC(CCCNC(=O)c1ccc(-c2cc(C(F)(F)F)n(C)n2)cc1)Nc1cn[nH]c(=O)c1C(F)(F)F (stereo not drawn) [Example 185] | – | –
17 | 1000 to 3000 | 10 to 30 | < 3 | CC(CCCNC(=O)c1ccc(-c2noc(C3CC3)n2)cc1)Nc1cn[nH]c(=O)c1C(F)(F)F (stereo not drawn) [Example 186] | – | –
18 | > 3000 | 10 to 30 | < 3 | CC(CCCNC(=O)c1ccc(-c2ccc(-c3cnco3)cn2)cc1)Nc1cn[nH]c(=O)c1C(F)(F)F (stereo not drawn) [Example 188] | – | –
19 | 1000 to 3000 | 30 to 100 | < 3 | Cc1nc(-c2ccc(C(=O)NCCCC(C)Nc3cn[nH]c(=O)c3C(F)(F)F)cc2)sc1C (stereo not drawn) [Example 189] | – | –
20 | > 3000 | 30 to 100 | 3 to 10 | CC(CCCNC(=O)c1ccc(-c2nn(C)cc2F)cc1)Nc1cn[nH]c(=O)c1C(F)(F)F (stereo not drawn) [Example 192] | – | –

Row | Compound | IC50 (NCI-H1373 cells) [nM] | IC50 (PARP7 [1]; [3]) [nM] | IC50 (PARP7 [2]; [4]) [nM] | IC50 (PARP7 [1]; read-out: PARP7 binding inhibition IC50; TR-FRET, Biotin-labeled probe RBN011147) [nM] | IC50 (PARP7 [2]; read-out: PARP7 activity inhibition IC50; Histone H1 coated plate, Biotin-Labeled NAD+, 2 h at room temperature, chemiluminescence) [nM]
21 | O=C(NCCC[C@H]1CCN1c1cn[nH]c(=O)c1C(F)(F)F)c1cnc(-c2ncc(C(F)(F)F)cn2)cn1 [Example 164] | > 3000 | – | – | > 100 | > 100
